This passage reports relative viability results from the supplement of paper PMC10307832.

Common to all, as to assay: relative viability (nuclei count vs DMSO), 5 days (fraction); higher = more cells survive
Compound in experiment [1]: Cn1cc(-c2cnn3c(N)c(Br)c([C@@H]4CCCNC4)nc23)cn1 + Nc1ncn([C@H]2C[C@H](O)[C@@H](CO)O2)c(=O)n1 [Decitabine] (partner 2 µM)
The gist of the method:
(§1)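 A single step with final 0.05% Triton X-100, 1% formaldehyde and 1 ug/ml Hoechst fixed the cells and stained nuclei 5 days after treatment. Lung cancer cell lines in 1536-well plates had been treated by pin tool the day after seeding with one drug alone or a fixed anchor-drug dose plus five library-drug doses (not always all listed) in √10 steps, and nuclei were counted on 4× images. Relative viability is the ratio of nuclei in treated wells to nuclei in vehicle wells, taken as the median of duplicate plates.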

Compound in experiment [2]: Cn1cc(-c2cnn3c(N)c(Br)c([C@@H]4CCCNC4)nc23)cn1 + Cc1nc(Nc2ncc(C(=O)Nc3c(C)cccc3Cl)s2)cc(N2CCN(CCO)CC2)n1 [Dasatinib] (partner 0.075 µM)
The gist of the method:
as §1

Compound in experiment [3]: Cn1cc(-c2cnn3c(N)c(Br)c([C@@H]4CCCNC4)nc23)cn1 + COc1cc2c(Oc3ccc(NC(=O)C4(C(=O)Nc5ccc(F)cc5)CC4)cc3F)ccnc2cc1OCCCN1CCOCC1 [Foretinib] (partner 0.25 µM)
The gist of the method:
as §1

Compound in experiment [4]: Cn1cc(-c2cnn3c(N)c(Br)c([C@@H]4CCCNC4)nc23)cn1 + CCNC(=O)c1noc(-c2cc(C(C)C)c(O)cc2O)c1-c1ccc(CN2CCOCC2)cc1 [Luminespib] (partner 0.01 µM)
The gist of the method: as §1

For the cell line NCI-H441, the relative viability worked out at 0.257 in experiment [1] (first compound 0.05 µM); 0.249 in experiment [1] (first compound 0.1581 µM); 0.26 in experiment [1] (first compound 0.5 µM); 0.22 in experiment [1] (first compound 1.581 µM); 0.257 in experiment [1] (first compound 5 µM); 0.589 in experiment [2] (first compound 0.05 µM). Also, the relative viability is 0.736 in experiment [2] (first compound 0.1581 µM); 0.476 in experiment [2] (first compound 0.5 µM); 0.487 in experiment [2] (first compound 1.581 µM); 0.601 in experiment [2] (first compound 5 µM); 0.99 in experiment [3] (first compound 0.05 µM); 1.38 in experiment [3] (first compound 0.1581 µM). Besides, the relative viability is 1.13 in experiment [3] (first compound 0.5 µM); 0.957 in experiment [3] (first compound 1.581 µM); 0.725 in experiment [3] (first compound 5 µM); 0.373 in experiment [4] (first compound 0.05 µM); 0.348 in experiment [4] (first compound 0.1581 µM); 0.31 in experiment [4] (first compound 0.5 µM). The relative viability in experiment [4] (first compound 1.581 µM) was determined as 0.254; in experiment [4] (first compound 5 µM) it was 0.302.
Turning to NCI-H460, the relative viability amounted to 0.523 in experiment [1] (first compound 0.05 µM); 0.546 in experiment [1] (first compound 0.1581 µM); 0.31 in experiment [1] (first compound 0.5 µM); 0.356 in experiment [1] (first compound 1.581 µM); 0.19 in experiment [1] (first compound 5 µM); 0.533 in experiment [2] (first compound 0.05 µM). The relative viability in experiment [2] (first compound 0.1581 µM) amounted to 0.437; in experiment [2] (first compound 0.5 µM), 0.483; in experiment [2] (first compound 1.581 µM) it was 0.317; in experiment [2] (first compound 5 µM) it was 0.144; in experiment [3] (first compound 0.05 µM), 0.957; in experiment [3] (first compound 0.1581 µM) it was 1.08. Further, the relative viability in experiment [3] (first compound 0.5 µM) came to 1.03; in experiment [3] (first compound 1.581 µM) it was 0.914; in experiment [3] (first compound 5 µM), 0.666; in experiment [4] (first compound 0.05 µM) it was 0.0336; in experiment [4] (first compound 0.1581 µM), 0.0269; in experiment [4] (first compound 0.5 µM), 0.0266. Moreover, the relative viability in experiment [4] (first compound 1.581 µM) was found to be 0.0285; in experiment [4] (first compound 5 µM), 0.0325.
Regarding NCI-H520, the relative viability in experiment [1] (first compound 0.05 µM) is 0.528; in experiment [1] (first compound 0.1581 µM), 0.543; in experiment [1] (first compound 0.5 µM), 0.57; in experiment [1] (first compound 1.581 µM), 0.527; in experiment [1] (first compound 5 µM), 0.306; in experiment [2] (first compound 0.05 µM), 0.178. Further, the relative viability in experiment [2] (first compound 0.1581 µM) was 0.258; in experiment [2] (first compound 0.5 µM) it was 0.191; in experiment [2] (first compound 1.581 µM) it was 0.176; in experiment [2] (first compound 5 µM) it was 0.165; in experiment [3] (first compound 0.05 µM) it was 0.671; in experiment [3] (first compound 0.1581 µM) it was 0.836. In addition, the relative viability is 0.751 in experiment [3] (first compound 0.5 µM); 0.664 in experiment [3] (first compound 1.581 µM); 0.58 in experiment [3] (first compound 5 µM); 0.207 in experiment [4] (first compound 0.05 µM); 0.206 in experiment [4] (first compound 0.1581 µM); 0.217 in experiment [4] (first compound 0.5 µM). Further, the figures for the relative viability in experiment [4] (first compound 1.581 µM) and in experiment [4] (first compound 5 µM) were 0.219 and 0.221, respectively.
Take NCI-H596: the relative viability in experiment [1] (first compound 0.05 µM) came out at 0.973; in experiment [1] (first compound 0.1581 µM), 0.968; in experiment [1] (first compound 0.5 µM), 1.03; in experiment [1] (first compound 1.581 µM) it was 0.916; in experiment [1] (first compound 5 µM), 1.12; in experiment [2] (first compound 0.05 µM), 0.668. In addition, the relative viability worked out at 0.549 in experiment [2] (first compound 0.1581 µM); 0.552 in experiment [2] (first compound 0.5 µM); 0.545 in experiment [2] (first compound 1.581 µM); 0.589 in experiment [2] (first compound 5 µM); 0.871 in experiment [3] (first compound 0.05 µM); 0.797 in experiment [3] (first compound 0.1581 µM). Moreover, the relative viability in experiment [3] (first compound 0.5 µM) amounted to 0.778; in experiment [3] (first compound 1.581 µM), 0.83; in experiment [3] (first compound 5 µM) it was 0.674; in experiment [4] (first compound 0.05 µM), 0.992; in experiment [4] (first compound 0.1581 µM) it was 0.971; in experiment [4] (first compound 0.5 µM), 0.965. Also, the figures for the relative viability in experiment [4] (first compound 1.581 µM) and in experiment [4] (first compound 5 µM) were 0.894 and 0.716, respectively.
In the case of NCI-H647, the relative viability in experiment [1] (first compound 0.05 µM) came to 0.434; in experiment [1] (first compound 0.1581 µM), 0.522; in experiment [1] (first compound 0.5 µM), 0.42; in experiment [1] (first compound 1.581 µM), 0.409; in experiment [1] (first compound 5 µM) it was 0.143; in experiment [2] (first compound 0.05 µM), 0.212. In addition, the relative viability in experiment [2] (first compound 0.1581 µM) stood at 0.326; in experiment [2] (first compound 0.5 µM), 0.143; in experiment [2] (first compound 1.581 µM), 0.12; in experiment [2] (first compound 5 µM), 0.123; in experiment [3] (first compound 0.05 µM), 1.17; in experiment [3] (first compound 0.1581 µM), 1.27. Moreover, the relative viability in experiment [3] (first compound 0.5 µM) came out at 1.25; in experiment [3] (first compound 1.581 µM) it was 1.01; in experiment [3] (first compound 5 µM), 0.416; in experiment [4] (first compound 0.05 µM), 0.232; in experiment [4] (first compound 0.1581 µM) it was 0.262; in experiment [4] (first compound 0.5 µM), 0.127. The relative viability in experiment [4] (first compound 1.581 µM) came to 0.106; in experiment [4] (first compound 5 µM), 0.104.
Regarding NCI-H650, the relative viability amounted to 0.317 in experiment [1] (first compound 0.05 µM); 0.341 in experiment [1] (first compound 0.1581 µM); 0.34 in experiment [1] (first compound 0.5 µM); 0.39 in experiment [1] (first compound 1.581 µM); 0.434 in experiment [1] (first compound 5 µM); 0.439 in experiment [2] (first compound 0.05 µM). In addition, the relative viability was 0.409 in experiment [2] (first compound 0.1581 µM); 0.451 in experiment [2] (first compound 0.5 µM); 0.474 in experiment [2] (first compound 1.581 µM); 0.422 in experiment [2] (first compound 5 µM); 1.14 in experiment [3] (first compound 0.05 µM); 1.03 in experiment [3] (first compound 0.1581 µM). The relative viability in experiment [3] (first compound 0.5 µM) is 1.02; in experiment [3] (first compound 1.581 µM), 1; in experiment [3] (first compound 5 µM) it was 0.881; in experiment [4] (first compound 0.05 µM), 0.807; in experiment [4] (first compound 0.1581 µM), 0.872; in experiment [4] (first compound 0.5 µM) it was 0.749. In addition, the relative viability is 0.811 in experiment [4] (first compound 1.581 µM) and 0.345 in experiment [4] (first compound 5 µM).
Regarding NCI-H661, the relative viability in experiment [1] (first compound 0.05 µM) is 0.551; in experiment [1] (first compound 0.1581 µM), 0.578; in experiment [1] (first compound 0.5 µM), 0.529; in experiment [1] (first compound 1.581 µM), 0.462; in experiment [1] (first compound 5 µM) it was 0.373; in experiment [2] (first compound 0.05 µM) it was 0.898. Moreover, the relative viability in experiment [2] (first compound 0.1581 µM) was found to be 0.962; in experiment [2] (first compound 0.5 µM), 0.891; in experiment [2] (first compound 1.581 µM), 0.82; in experiment [2] (first compound 5 µM), 0.432; in experiment [3] (first compound 0.05 µM), 1.05; in experiment [3] (first compound 0.1581 µM), 0.991. For the same cell line, the relative viability was determined as 0.979 in experiment [3] (first compound 0.5 µM); 1.02 in experiment [3] (first compound 1.581 µM); 0.932 in experiment [3] (first compound 5 µM); 0.953 in experiment [4] (first compound 0.05 µM); 0.953 in experiment [4] (first compound 0.1581 µM); 0.991 in experiment [4] (first compound 0.5 µM). The relative viability in experiment [4] (first compound 1.581 µM) came out at 0.829; in experiment [4] (first compound 5 µM) it was 0.729.
